Test system in the first test: not listed separately
Put plainly: Cytotoxicity against c-Met over-expressed human HT-29 cells assessed as cell growth inhibition after 72 hrs by MTT assay. As to conditions: HT-29, 72 h. On the technique in general: Tetrazolium assays rely on reduction of a dye to a coloured formazan, in cell work by metabolically active cells.
Regarding `COc1cc2c(Oc3ccc(NC(=O)c4nn(-c5ccccc5OC(F)(F)F)c(=O)n4C4CC4)cc3F)ccnc2cc1OCCCN1CCC(C)CC1`, the IC50 came to 110 nM.
With `COc1ccc(-n2nc(C(=O)Nc3ccc(Oc4ccnc5cc(OCCCN6CCCCC6)c(OC)cc45)c(F)c3)n(C)c2=O)cc1`, the IC50 came to 3120 nM.
Still for that read-out and setting: in the case of `COc1cc2c(Oc3ccc(NC(=O)c4nn(-c5ccccc5)c(=O)n4C)cc3F)ccnc2cc1OCCCN1CCC(C)CC1` it was 670 nM.
Same read-out and setting: the same measure for `COc1cc2c(Oc3ccc(NC(=O)c4nn(-c5c(C)cccc5C)c(=O)n4C)cc3F)ccnc2cc1OCCCN1CCC(C)CC1`: 2680 nM; for `COc1cc2c(Oc3ccc(NC(=O)c4nn(-c5ccc(OC(F)F)cc5)c(=O)n4C)cc3F)ccnc2cc1OCCCN1CCC(C)CC1`: 190 nM.
The same measure, in the same setting: in the case of `COc1cc2c(Oc3ccc(NC(=O)c4nn(-c5ccccc5OC(F)(F)F)c(=O)n4C)cc3F)ccnc2cc1OCCCN1CCN(C)CC1` it was 180 nM.
In the case of `COc1ccc(-n2nc(C(=O)Nc3ccc(Oc4ccnc5cc(OCCCN6CCN(C)CC6)c(OC)cc45)c(F)c3)n(C)c2=O)cc1`, the IC50 amounted to 1280 nM.
The same measure, in the same setting: the same measure for `COc1cc2c(Oc3ccc(NC(=O)c4nn(-c5ccccc5OC(F)(F)F)c(=O)n4C)cc3F)ccnc2cc1OCCCN1CCCCC1`: 210 nM; for `COc1cc2c(Oc3ccc(NC(=O)c4nn(-c5ccccc5F)c(=O)n4C)cc3F)ccnc2cc1OCCCN1CCC(C)CC1`: 110 nM.
For `COc1ccc(-n2nc(C(=O)Nc3ccc(Oc4ccnc5cc(OCCCN6CCC(C)CC6)c(OC)cc45)c(F)c3)n(C)c2=O)cc1`, the half-maximal inhibitory concentration (IC50) came out at 1430 nM.
Regarding `COc1cc2c(Oc3ccc(NC(=O)c4nn(-c5ccccc5)c(=O)n4C)cc3F)ccnc2cc1OCCCN1CCCCC1`, the 50% inhibitory concentration (IC50) came out at 870 nM.
On to `COc1cc2c(Oc3ccc(NC(=O)c4nn(-c5ccc(OC(F)F)cc5)c(=O)n4C)cc3F)ccnc2cc1OCCCN1CCCCC1`, for which the IC50 was 280 nM.

Test system in the next test: not listed separately
Put plainly: Cytotoxicity against c-Met over-expressed human H460 cells assessed as cell growth inhibition after 72 hrs by MTT assay. As to conditions: NCI-H460, 72 h.
`COc1cc2c(Oc3ccc(NC(=O)c4nn(-c5ccccc5OC(F)(F)F)c(=O)n4C4CC4)cc3F)ccnc2cc1OCCCN1CCC(C)CC1`: the IC50 came to 240 nM.
Still for that read-out and setting: the same measure for `COc1ccc(-n2nc(C(=O)Nc3ccc(Oc4ccnc5cc(OCCCN6CCCCC6)c(OC)cc45)c(F)c3)n(C)c2=O)cc1`: 2840 nM.
Still for that read-out and setting: the same measure for `COc1cc2c(Oc3ccc(NC(=O)c4nn(-c5ccccc5)c(=O)n4C)cc3F)ccnc2cc1OCCCN1CCC(C)CC1`: 830 nM; for `COc1cc2c(Oc3ccc(NC(=O)c4nn(-c5c(C)cccc5C)c(=O)n4C)cc3F)ccnc2cc1OCCCN1CCC(C)CC1`: 3220 nM.
As for `COc1cc2c(Oc3ccc(NC(=O)c4nn(-c5ccc(OC(F)F)cc5)c(=O)n4C)cc3F)ccnc2cc1OCCCN1CCC(C)CC1`, the half-maximal inhibitory concentration (IC50) came to 250 nM.
On the same count and under the same terms, the same measure for `COc1cc2c(Oc3ccc(NC(=O)c4nn(-c5ccccc5OC(F)(F)F)c(=O)n4C)cc3F)ccnc2cc1OCCCN1CCN(C)CC1`: 200 nM.
On the same count and under the same terms, the same measure for `COc1ccc(-n2nc(C(=O)Nc3ccc(Oc4ccnc5cc(OCCCN6CCN(C)CC6)c(OC)cc45)c(F)c3)n(C)c2=O)cc1`: 2140 nM; for `COc1cc2c(Oc3ccc(NC(=O)c4nn(-c5ccccc5OC(F)(F)F)c(=O)n4C)cc3F)ccnc2cc1OCCCN1CCCCC1`: 290 nM; for `COc1cc2c(Oc3ccc(NC(=O)c4nn(-c5ccccc5F)c(=O)n4C)cc3F)ccnc2cc1OCCCN1CCC(C)CC1`: 250 nM.
Take `COc1ccc(-n2nc(C(=O)Nc3ccc(Oc4ccnc5cc(OCCCN6CCC(C)CC6)c(OC)cc45)c(F)c3)n(C)c2=O)cc1`: the half-maximal inhibitory concentration (IC50) stood at 2400 nM.
The same measure, in the same setting: the same measure for `COc1cc2c(Oc3ccc(NC(=O)c4nn(-c5ccccc5)c(=O)n4C)cc3F)ccnc2cc1OCCCN1CCCCC1`: 780 nM; for `COc1cc2c(Oc3ccc(NC(=O)c4nn(-c5ccc(OC(F)F)cc5)c(=O)n4C)cc3F)ccnc2cc1OCCCN1CCCCC1`: 310 nM.

Test system in a further test: not listed separately
The test can be described thus: Cytotoxicity against c-Met over-expressed human A549 cells assessed as cell growth inhibition after 72 hrs by MTT assay. As to conditions: A549, 72 h.
With `COc1cc2c(Oc3ccc(NC(=O)c4nn(-c5ccccc5OC(F)(F)F)c(=O)n4C4CC4)cc3F)ccnc2cc1OCCCN1CCC(C)CC1`, the 50% inhibitory concentration (IC50) is 120 nM.
On the same count and under the same terms, the same measure for `COc1ccc(-n2nc(C(=O)Nc3ccc(Oc4ccnc5cc(OCCCN6CCCCC6)c(OC)cc45)c(F)c3)n(C)c2=O)cc1`: 960 nM; for `COc1cc2c(Oc3ccc(NC(=O)c4nn(-c5ccccc5)c(=O)n4C)cc3F)ccnc2cc1OCCCN1CCC(C)CC1`: 380 nM; for `COc1cc2c(Oc3ccc(NC(=O)c4nn(-c5c(C)cccc5C)c(=O)n4C)cc3F)ccnc2cc1OCCCN1CCC(C)CC1`: 4550 nM.
On the same count and under the same terms, the same measure for `COc1cc2c(Oc3ccc(NC(=O)c4nn(-c5ccc(OC(F)F)cc5)c(=O)n4C)cc3F)ccnc2cc1OCCCN1CCC(C)CC1`: 120 nM.
For the compound `COc1cc2c(Oc3ccc(NC(=O)c4nn(-c5ccccc5OC(F)(F)F)c(=O)n4C)cc3F)ccnc2cc1OCCCN1CCN(C)CC1`, the IC50 is 90 nM.
Same read-out and setting: in the case of `COc1ccc(-n2nc(C(=O)Nc3ccc(Oc4ccnc5cc(OCCCN6CCN(C)CC6)c(OC)cc45)c(F)c3)n(C)c2=O)cc1` it was 720 nM.
Same read-out and setting: in the case of `COc1cc2c(Oc3ccc(NC(=O)c4nn(-c5ccccc5OC(F)(F)F)c(=O)n4C)cc3F)ccnc2cc1OCCCN1CCCCC1` it was 130 nM; in that of `COc1cc2c(Oc3ccc(NC(=O)c4nn(-c5ccccc5F)c(=O)n4C)cc3F)ccnc2cc1OCCCN1CCC(C)CC1`, 120 nM.
Still for that read-out and setting: the same measure for `COc1ccc(-n2nc(C(=O)Nc3ccc(Oc4ccnc5cc(OCCCN6CCC(C)CC6)c(OC)cc45)c(F)c3)n(C)c2=O)cc1`: 620 nM.
Regarding `COc1cc2c(Oc3ccc(NC(=O)c4nn(-c5ccccc5)c(=O)n4C)cc3F)ccnc2cc1OCCCN1CCCCC1`, the IC50 is 450 nM.
On the same count and under the same terms, the same measure for `COc1cc2c(Oc3ccc(NC(=O)c4nn(-c5ccc(OC(F)F)cc5)c(=O)n4C)cc3F)ccnc2cc1OCCCN1CCCCC1`: 220 nM.

Test system in a further test: not listed separately
The test can be described thus: Cytotoxicity against c-Met over-expressed human MKN45 cells assessed as cell growth inhibition after 72 hrs by MTT assay. The following applies: MKN-45, 72 h.
Consider `COc1cc2c(Oc3ccc(NC(=O)c4nn(-c5ccccc5OC(F)(F)F)c(=O)n4C4CC4)cc3F)ccnc2cc1OCCCN1CCC(C)CC1`, for which the IC50 came to 100 nM.
Same read-out and setting: the same measure for `COc1ccc(-n2nc(C(=O)Nc3ccc(Oc4ccnc5cc(OCCCN6CCCCC6)c(OC)cc45)c(F)c3)n(C)c2=O)cc1`: 880 nM; for `COc1cc2c(Oc3ccc(NC(=O)c4nn(-c5ccccc5)c(=O)n4C)cc3F)ccnc2cc1OCCCN1CCC(C)CC1`: 470 nM.
Still for that read-out and setting: in the case of `COc1cc2c(Oc3ccc(NC(=O)c4nn(-c5c(C)cccc5C)c(=O)n4C)cc3F)ccnc2cc1OCCCN1CCC(C)CC1` it was 2230 nM.
On the same count and under the same terms, the same measure for `COc1cc2c(Oc3ccc(NC(=O)c4nn(-c5ccc(OC(F)F)cc5)c(=O)n4C)cc3F)ccnc2cc1OCCCN1CCC(C)CC1`: 220 nM.
Turning to `COc1cc2c(Oc3ccc(NC(=O)c4nn(-c5ccccc5OC(F)(F)F)c(=O)n4C)cc3F)ccnc2cc1OCCCN1CCN(C)CC1`, the half-inhibitory concentration (IC50) is 20 nM.
The same measure, in the same setting: in the case of `COc1ccc(-n2nc(C(=O)Nc3ccc(Oc4ccnc5cc(OCCCN6CCN(C)CC6)c(OC)cc45)c(F)c3)n(C)c2=O)cc1` it was 1650 nM; in that of `COc1cc2c(Oc3ccc(NC(=O)c4nn(-c5ccccc5OC(F)(F)F)c(=O)n4C)cc3F)ccnc2cc1OCCCN1CCCCC1`, 80 nM.
On the same count and under the same terms, the same measure for `COc1cc2c(Oc3ccc(NC(=O)c4nn(-c5ccccc5F)c(=O)n4C)cc3F)ccnc2cc1OCCCN1CCC(C)CC1`: 190 nM; for `COc1ccc(-n2nc(C(=O)Nc3ccc(Oc4ccnc5cc(OCCCN6CCC(C)CC6)c(OC)cc45)c(F)c3)n(C)c2=O)cc1`: 590 nM.
On to `COc1cc2c(Oc3ccc(NC(=O)c4nn(-c5ccccc5)c(=O)n4C)cc3F)ccnc2cc1OCCCN1CCCCC1`, for which the IC50 worked out at 460 nM.
Still for that read-out and setting: in the case of `COc1cc2c(Oc3ccc(NC(=O)c4nn(-c5ccc(OC(F)F)cc5)c(=O)n4C)cc3F)ccnc2cc1OCCCN1CCCCC1` it was 130 nM.

The next test is filed under the species Homo sapiens. The test can be described thus: Selectivity ratio of IC50 for VEGFR2 (unknown origin) to IC50 for c-MET (unknown origin).
Conditions: not given
On to `COc1cc2c(Oc3ccc(NC(=O)c4cn(-c5ccccc5Cl)nn4)cc3F)ccnc2cc1OCCCN1CCCCC1`, for which the Ratio IC50 is 53.
Still for that read-out and setting: the same measure for `COc1cc2c(Oc3ccc(N/C=C4\C(=O)N(c5ccccc5C(F)(F)F)N=C4C)cc3F)ccnc2cc1OCCCN1CCOCC1`: 172.

In general, IC50 refers to the concentration at which inhibition is half-maximal.

These data come from ChEMBL document CHEMBL3870316, “Design, synthesis and structure-activity relationships of novel 4-phenoxyquinoline derivatives containing 1,2,4-triazolone moiety as c-Met kinase inhibitors” (Eur J Med Chem, 2016).
